The source of these data is patent US20230159510A1, “NOVEL PRMT5 INHIBITORS” (AMGEN INC., priority 2020, published 2023).

SMILES strings stand for the structures. Where two headings read alike, the source gives them in different places.

One assay deals with HCT116 MTAP null cells. Put plainly: HCT116 proliferation assay, MTAP null cells (CellTiter-Glo, 6 days). It is filed as cell-based. The conditions noted are these: 144 h, read-out: Protif_ HCT116-MTAP null IC50. The method in brief:
(§1)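 Cells grown in RPMI 1640 + 10% FBS, plated overnight, then exposed for 6 days to 8- or 9-point 1:3 compound dilutions (top 1 or 10 µM) with DMSO control. Viability read by CellTiter-Glo luminescence.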

For the next assay, the system named is HCT116 WT cells. Put plainly: HCT116 proliferation assay, WT cells (CellTiter-Glo, 6 days). It is filed as cell-based. As to conditions: Homo sapiens, HCT-116, 144 h, read-out: Prolif_HCT116-WT IC50. The method in brief:
as §1

A further assay addresses PRMT5/MEP50 (Homo sapiens, UniProt O14744). Put plainly: MTase-Glo methyl transferase assay, Method B (FL-Histone H2A, 1 µM MTA, 1 h pre-incubation). The assay is classed as biochemical. The conditions noted are these: read-out: PRMT5 MTase Glo Ki (nM, Meth. B). Also noted: purchased Reaction Biology Corp RD-11-292. The method in brief: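 PRMT5/MEP50 (4 nM) was pre-incubated 1 h with compound, 5 µM SAM and 1 µM MTA, then started with 2.5 µM FL-Histone H2A in Tris pH 8.0 buffer. After 20 h at room temperature, SAH was detected by MTase-Glo luminescence, and IC50/KI were fitted from dose-response curves.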

Chain of PRMT5/MEP50 (O14744 2-637 limits assumed): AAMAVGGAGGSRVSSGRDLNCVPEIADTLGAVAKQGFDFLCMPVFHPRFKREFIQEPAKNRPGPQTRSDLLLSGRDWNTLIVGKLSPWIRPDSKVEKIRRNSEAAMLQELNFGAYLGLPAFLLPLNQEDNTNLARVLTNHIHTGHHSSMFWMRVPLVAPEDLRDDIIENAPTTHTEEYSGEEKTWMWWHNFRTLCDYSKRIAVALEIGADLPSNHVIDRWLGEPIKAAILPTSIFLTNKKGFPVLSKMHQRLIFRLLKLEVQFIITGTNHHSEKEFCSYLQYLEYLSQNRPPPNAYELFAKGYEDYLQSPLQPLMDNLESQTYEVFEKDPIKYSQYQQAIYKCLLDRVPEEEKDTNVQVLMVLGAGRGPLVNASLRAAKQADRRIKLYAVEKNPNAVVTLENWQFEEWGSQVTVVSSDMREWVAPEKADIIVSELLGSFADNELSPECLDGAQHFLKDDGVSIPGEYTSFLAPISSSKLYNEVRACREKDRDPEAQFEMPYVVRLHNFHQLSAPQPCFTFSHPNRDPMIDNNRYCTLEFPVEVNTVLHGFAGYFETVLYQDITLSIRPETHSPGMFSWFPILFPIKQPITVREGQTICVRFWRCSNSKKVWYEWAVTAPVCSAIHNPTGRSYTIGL
Chain of PRMT5/MEP50 (Q9BQA1 2-342 partner limits assumed): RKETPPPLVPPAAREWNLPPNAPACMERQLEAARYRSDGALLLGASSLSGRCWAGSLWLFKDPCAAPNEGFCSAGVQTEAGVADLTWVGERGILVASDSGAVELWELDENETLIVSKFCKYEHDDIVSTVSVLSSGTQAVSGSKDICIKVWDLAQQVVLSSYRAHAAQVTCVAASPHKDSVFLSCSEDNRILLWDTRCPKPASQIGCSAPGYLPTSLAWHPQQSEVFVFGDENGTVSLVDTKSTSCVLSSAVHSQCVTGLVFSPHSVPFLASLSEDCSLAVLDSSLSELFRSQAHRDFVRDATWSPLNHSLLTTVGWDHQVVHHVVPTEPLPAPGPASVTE

As for `Cc1cc2cc(C(=O)N(Cc3ccc(C(F)(F)F)cn3)Cc3ccnc4[nH]ccc34)ncc2nc1N` [Example 684, 2-amino-3-methyl-N-(1H-pyrrolo[2,3-b]pyridin-4-ylmethyl)-N-[[5-(trifluoromethyl)-2-pyridyl]methyl]-1,7-naphthyridine-6-carboxamide], the values for the IC50 in the assay on HCT116 MTAP null cells (HCT116-MTAP null) and in the assay with HCT116 WT cells were 114 nM and above 1000 nM, respectively. For the same compound, at PRMT5/MEP50, the Ki turned out to be 2.29 nM.

On to `Cc1cc2cc(C(=O)N(Cc3ccc(C(F)(F)F)cn3)CC(C)C3CC3)ccc2nc1N` (stereo not drawn) [Example 575, 2-amino-N-(2-cyclopropylpropyl)-3-methyl-N-((5-(trifluoromethyl)pyridin-2-yl)methyl)quinoline-6-carboxamide], for which the IC50 in the assay on HCT116 MTAP null cells (HCT116-MTAP null) was 78 nM; with HCT116 WT cells, above 1000 nM. Further, the Ki on PRMT5/MEP50 stood at 2.89 nM.

In the case of `Cc1cc2cc(C(=O)N(Cc3ccc(C(F)(F)F)cn3)CC(C)C(F)(F)F)ccc2nc1N` (stereo not drawn) [Example 591, 2-amino-3-methyl-N-(3,3,3-trifluoro-2-methylpropyl)-N-((5-(trifluoromethyl)pyridin-2-yl)methyl)quinoline-6-carboxamide], the IC50 in the assay on HCT116 MTAP null cells is 456 nM; in the assay on HCT116 WT cells, above 1000 nM. In addition, the Ki on PRMT5/MEP50 is 16.5 nM.

On to `Cc1cc2c(nc1N)CCC(C(=O)N(Cc1ccc(C(F)(F)F)cn1)Cc1ccnc3[nH]ccc13)C2` (stereo not drawn) [Example 581, N-((1H-pyrrolo[2,3-b]pyridin-4-yl)methyl)-2-amino-3-methyl-N-((5-(trifluoromethyl)pyridin-2-yl)methyl)-5,6,7,8-tetrahydroquinoline-6-carboxamide], for which the IC50 in the assay on HCT116 MTAP null cells (HCT116-MTAP null) was 840 nM; with HCT116 WT cells, above 1000 nM. In addition, the inhibition constant Ki on PRMT5/MEP50 was 16 nM.

On to `Cc1cc2cc(C(=O)N(Cc3ccc(C(F)(F)F)cn3)C3CC(C)c4ccccc43)ccc2nc1N` (stereo not drawn) [Example 595, 2-amino-3-methyl-N-(3-methyl-2,3-dihydro-1H-inden-1-yl)-N-((5-(trifluoromethyl)pyridin-2-yl)methyl)quinoline-6-carboxamide], for which the concentration for half-maximal inhibition (IC50) with HCT116 MTAP null cells (HCT116-MTAP null) turned out to be 990 nM; with HCT116 WT cells, 8200 nM. Moreover, on PRMT5/MEP50, the Ki worked out at 21.5 nM.

`Cc1cc2cc(C(=O)N(Cc3ccc(C(F)(F)F)cn3)[C@@H]3c4ccccc4C[C@H]3O)ccc2nc1N` [Example 609, 2-amino-N-((1R,2R)-2-hydroxy-2,3-dihydro-1H-inden-1-yl)-3-methyl-N-((5-(trifluoromethyl)pyridin-2-yl)methyl)quinoline-6-carboxamide]: the figures for the IC50 in the assay on HCT116 MTAP null cells (HCT116-MTAP null) and in the assay with HCT116 WT cells were 540 nM and above 1000 nM, respectively. Besides, the inhibition constant Ki at PRMT5/MEP50 stood at 26.8 nM.

Turning to `Cc1cc2cc(C(=O)N(Cc3cnc4[nH]ccc4c3)Cc3ccc(C(F)(F)F)cn3)ccc2nc1N` [Example 598, 2-amino-3-methyl-N-(1H-pyrrolo [2,3-b]pyridin-5-ylmethyl)-N-[[5-(trifluoromethyl)-2-pyridyl]methyl]quinoline-6-carboxamide], the IC50 in the assay with HCT116 MTAP null cells (HCT116-MTAP null) was 180 nM; in the assay on HCT116 WT cells, above 1000 nM. For the same compound, the inhibition constant Ki at PRMT5/MEP50 amounted to 2.44 nM.

Regarding `Cc1cc2cc(C(=O)N(Cc3ccc(C(F)(F)F)cn3)C3CC3C3CC3)ccc2nc1N` (stereo not drawn) [Example 705, 2-amino-N-(2-cyclopropylcyclopropyl)-3-methyl-N-[[5-(trifluoromethyl)-2-pyridyl]methyl] quinoline-6-carboxamide], the 50% inhibitory concentration (IC50) in the assay on HCT116 MTAP null cells (HCT116-MTAP null) was 760 nM; in the assay on HCT116 WT cells, above 1000 nM. For the same compound, the Ki on PRMT5/MEP50 was 9.63 nM.

For the compound `Cc1cc(N)nc2ccc(C(=O)N(Cc3ccc(C(F)(F)F)cn3)Cc3ccn(C)n3)cc12` [Example 709, 2-amino-4-methyl-N-[(1-methylpyrazol-3-yl)methyl]-N-[[5-(trifluoromethyl)-2-pyridyl]methyl] quinoline-6-carboxamide], the IC50 with HCT116 MTAP null cells (HCT116-MTAP null) came to 334 nM; in the assay on HCT116 WT cells it was 1430 nM. For the same compound, on PRMT5/MEP50, the inhibition constant (Ki) was determined as 2.97 nM.

`Cc1cc2cc(C(=O)N(Cc3ccc(CO)c(F)c3)Cc3ccc(C(F)(F)F)cn3)ccc2nc1N` [Example 566, 2-amino-N-[[3-fluoro-4-(hydroxymethyl)phenyl]methyl]-3-methyl-N-[[5-(trifluoromethyl)-2-pyridyl]methyl] quinoline-6-carboxamide]: the values for the IC50 in the assay with HCT116 MTAP null cells (HCT116-MTAP null) and with HCT116 WT cells were 277 nM and above 10000 nM, respectively. At PRMT5/MEP50, the inhibition constant Ki was found to be 4.58 nM.

Turning to `Cc1cc2cc(C(=O)N(Cc3ccc4cn[nH]c4c3)Cc3ccc(C(F)(F)F)cn3)ccc2nc1N` [Example 619, N-((1H-indazol-6-yl)methyl)-2-amino-3-methyl-N-((5-(trifluoromethyl)pyridin-2-yl)methyl)quinoline-6-carboxamide], the IC50 is 128 nM in the assay on HCT116 MTAP null cells (HCT116-MTAP null) and 1300 nM with HCT116 WT cells. Also, at PRMT5/MEP50, the inhibition constant (Ki) stood at 1.87 nM.

As to `Cc1cc2cc(C(=O)N(Cc3ccc(C(F)(F)F)cn3)C3COc4ccccc43)ccc2nc1N` (stereo not drawn) [Example 608, 2-amino-N-(2,3-dihydrobenzofuran-3-yl)-3-methyl-N-((5-(trifluoromethyl)pyridin-2-yl)methyl)quinoline-6-carboxamide], the figures for the IC50 in the assay with HCT116 MTAP null cells (HCT116-MTAP null) and with HCT116 WT cells were 400 nM and above 1000 nM, respectively. For the same compound, the inhibitory constant (Ki) on PRMT5/MEP50 worked out at 5.26 nM.

Turning to `Cc1cc2cc(C(=O)N(Cc3ccc(C(F)(F)F)cn3)CC3CCOCC3C)ccc2nc1N` (stereo not drawn) [Example 596, 2-amino-3-methyl-N-((3-methyltetrahydro-2H-pyran-4-yl)methyl)-N-((5-(trifluoromethyl)pyridin-2-yl)methyl)quinoline-6-carboxamide], the concentration for half-maximal inhibition (IC50) in the assay on HCT116 MTAP null cells (HCT116-MTAP null) is 352 nM; in the assay with HCT116 WT cells it was above 10000 nM. Moreover, on PRMT5/MEP50, the inhibitory constant (Ki) came to 17.1 nM.

Take `Cc1cc2cc(C(=O)N(Cc3ccc(C(F)(F)F)cn3)CC3CCC3)ccc2nc1N` [Example 562, 2-amino-N-(cyclobutylmethyl)-3-methyl-N-[[5-(trifluoromethyl)-2-pyridyl]methyl]quinoline-6-carboxamide]: the values for the IC50 in the assay with HCT116 MTAP null cells (HCT116-MTAP null) and with HCT116 WT cells were 455 nM and above 1000 nM, respectively. Moreover, at PRMT5/MEP50, the Ki is 3.76 nM.

`Cc1cc2cc(C(=O)N(Cc3ccc(N)nc3)Cc3ccc(C(F)(F)F)cn3)ccc2nc1N` [Example 568, 2-amino-N-[(6-amino-3-pyridyl)methyl]-3-methyl-N-[[5-(trifluoromethyl)-2-pyridyl]methyl] quinoline-6-carboxamide]: the IC50 with HCT116 MTAP null cells (HCT116-MTAP null) was determined as 130 nM; in the assay with HCT116 WT cells it was 5550 nM. The Ki on PRMT5/MEP50 is 2 to 3 nM.

As to `Cc1cc2cc(C(=O)N(Cc3ccc(C(F)(F)F)cn3)C3CCc4c(O)cccc43)ccc2nc1N` (stereo not drawn) [Example 628, 2-amino-N-(4-hydroxy-2,3-dihydro-1H-inden-1-yl)-3-methyl-N-((5-(trifluoromethyl)pyridin-2-yl)methyl)quinoline-6-carboxamide], the concentration for half-maximal inhibition (IC50) came to 53 nM with HCT116 MTAP null cells (HCT116-MTAP null) and 440 nM with HCT116 WT cells. In addition, the inhibition constant Ki at PRMT5/MEP50 was in the range of 3 to 4 nM.

For `Cc1cc2cc(C(=O)N(Cc3ccc(C(F)(F)F)cn3)Cc3c(C)c4ccccc4n3C)ccc2nc1N` [Example 578, 2-amino-N-((1,3-dimethyl-1H-indol-2-yl)methyl)-3-methyl-N-((5-(trifluoromethyl)pyridin-2-yl)methyl)quinoline-6-carboxamide], the figures for the half-maximal inhibitory concentration (IC50) in the assay on HCT116 MTAP null cells (HCT116-MTAP null) and in the assay on HCT116 WT cells were 859 nM and 5090 nM, respectively. The Ki on PRMT5/MEP50 was 15.4 nM.

Turning to `Cc1cc2cc(C(=O)N(Cc3ccc(C(F)(F)F)cn3)C[C@H]3CC[C@H](O)CC3)ccc2nc1N` [Example 676, 2-amino-N-[(4-hydroxycyclohexyl)methyl]-3-methyl-N-[[5-(trifluoromethyl)-2-pyridyl]methyl] quinoline-6-carboxamide], the IC50 is 255 nM with HCT116 MTAP null cells (HCT116-MTAP null) and above 1000 nM in the assay on HCT116 WT cells. Besides, the Ki on PRMT5/MEP50 came to 3.88 nM.

On to `Cc1cc2cc(C(=O)N(Cc3ccc(C#N)cn3)C3CCCC3C#N)c(F)cc2nc1N` (stereo not drawn) [Example 703, 2-amino-N-(2-cyanocyclopentyl)-N-[(5-cyano-2-pyridyl)methyl] -7-fluoro-3-methyl-quinoline-6-carboxamide], for which the IC50 with HCT116 MTAP null cells (HCT116-MTAP null) worked out at 222 nM; in the assay on HCT116 WT cells, 2300 nM. The inhibitory constant (Ki) on PRMT5/MEP50 amounted to 5.62 nM.

For `Cc1cc(N)nc2ccc(C(=O)N(Cc3ccc(C(F)(F)F)cn3)Cc3ncn(C)n3)cc12` [Example 710, 2-amino-4-methyl-N-[(1-methyl-1,2,4-triazol-3-yl)methyl]-N-[[5-(trifluoromethyl)-2-pyridyl]methyl] quinoline-6-carboxamide], the half-maximal inhibitory concentration (IC50) was 177 nM in the assay with HCT116 MTAP null cells (HCT116-MTAP null) and 1140 nM in the assay with HCT116 WT cells. Further, on PRMT5/MEP50, the inhibition constant Ki is 4.13 nM.

Take `Cc1cc2cc(C(=O)N(Cc3ccc(C(F)(F)F)cn3)C3CC(C)(C)c4ccccc43)ccc2nc1N` (stereo not drawn) [Example 594, 2-amino-N-(3,3-dimethyl-2,3-dihydro-1H-inden-1-yl)-3-methyl-N-((5-(trifluoromethyl)pyridin-2-yl)methyl)quinoline-6-carboxamide]: the IC50 was 640 nM with HCT116 MTAP null cells (HCT116-MTAP null) and above 1000 nM in the assay with HCT116 WT cells. The Ki at PRMT5/MEP50 amounted to 26 nM.

In the case of `Cc1cc2cc(C(=O)N(Cc3ccc(C(F)(F)F)cn3)CC3CCn4ccnc4C3)ccc2nc1N` (stereo not drawn) [Example 614, 2-amino-3-methyl-N-((5,6,7,8-tetrahydroimidazo [1,2-a]pyridin-7-yl)methyl)-N-((5-(trifluoromethyl)pyridin-2-yl)methyl)quinoline-6-carboxamide], the 50% inhibitory concentration (IC50) is 950 nM in the assay on HCT116 MTAP null cells (HCT116-MTAP null) and above 1000 nM with HCT116 WT cells. For the same compound, the Ki at PRMT5/MEP50 was determined as 9.42 nM.

Take `Cc1nc2c(s1)C(N(Cc1ccc(C(F)(F)F)cn1)C(=O)c1ccc3nc(N)c(C)cc3c1)CCC2` (stereo not drawn) [Example 604, 2-amino-3-methyl-N-(2-methyl-4,5,6,7-tetrahydrobenzo[d]thiazol-7-yl)-N-((5-(trifluoromethyl)pyridin-2-yl)methyl)quinoline-6-carboxamide]: the IC50 in the assay with HCT116 MTAP null cells (HCT116-MTAP null) was 44 nM; with HCT116 WT cells it was 400 nM. Also, the Ki on PRMT5/MEP50 is 5.46 nM.
